“Also recorded” adds a separate entry of the source.
Experiments:
[1] = target: T1, TAOK2 (Rattus norvegicus, UniProt Q9JLS3); experiment: Differential scanning fluorimetry (DSF) binding assay against TAOK2; settings: DSF melt temperature shift of TAOK2, 5 μM TAOK2, compound 1 μM
T1 construct: made in house
T1 sequence (Q9JLS3 1-320 limits assumed): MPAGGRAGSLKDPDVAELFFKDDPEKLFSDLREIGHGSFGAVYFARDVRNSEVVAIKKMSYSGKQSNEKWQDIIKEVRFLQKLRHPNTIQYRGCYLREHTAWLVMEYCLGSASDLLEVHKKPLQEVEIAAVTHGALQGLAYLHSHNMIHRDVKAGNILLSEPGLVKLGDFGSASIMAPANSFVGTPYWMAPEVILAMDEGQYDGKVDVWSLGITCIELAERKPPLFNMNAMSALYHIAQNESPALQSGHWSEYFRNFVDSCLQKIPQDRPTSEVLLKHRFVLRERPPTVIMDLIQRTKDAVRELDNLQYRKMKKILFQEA
Procedure: Differential scanning fluorimetry binding assays of selected compounds against TAOK2 were conducted to measure strength of compound binding. A solution of 5 μM TAOK2, 50 mM MgCl2, 50 mM HEPES pH 7.5, and 2.5x SyproOrange(Life Technologies) was made. Compound was added to a final concentration of 1 μM. 25 μl of the reaction solution was added to the wells of a Biorad Multiplate 96 wellclear PCR plate. The plate was covered with a Biorad Microseal ‘B’ seal. Plates were read in a Biorad CFX96 Real-Time PCR system. The temperature was increased from 4° C. to 80° C., with fluorescence measurements being taken every 0.5° C. in the 6-FAM Fluorescein channel. The fluorescence response to heat curve was fit to a binding isotherm in order to determine the inflection point, which was taken as the melt temperature (Tm).
The prevalence of multiple heterocycles in the compounds is reflective of the composition of the screen (described in Methods in Supplemental Material). These 13 compounds were purchased from Chembridge Inc. and ChemDiv Inc. for measurement of direct binding using Differential Scanning Fluorimetry (DSF). DSF measures protein melt temperature (Tm) with a lipophilic dye (SyproOrange). As the temperature of the solution is increased, measurements of dye fluorescence are taken. When the protein begins to denature, hydrophobic regions in the protein are exposed, and the dye is able to bind. This binding insulates the dye from the surrounding water, reducing quenching effects and allowing fluorescence. Binding of small molecules to protein has a stabilizing effect, and this is seen by an increase in melt temperature (Table 1). The ΔTm values ranged from 3.0 to −0.6° C. The three compounds with the highest positive shifts were SW034538, SW163112, and SW083688, with 3° C., 2.2° C., and 2° C. shifts, respectively.

[2] = system: U2OS GFP-LC3 cells; experiment: p62 accumulation by western blot (autophagic flux); format: cell-based, human; settings: 50 μM, 24 hours
Procedure: (§1) FIG. 4A) U2OS cells stably expressing the GFP-LC3 fusion transgene were treated with the indicated compound at 50 μM concentration for 24 hours before GFP fluorescence was measured by flow cytometry. The median fluorescent value from 20,000 cells per condition was normalized to that of vehicle alone (DMSO) within a given experiment. The mean+SD of >2 independent experiments is shown. ****, p<0.0001; ***, p<0.001; **, p<0.01; ns, p>0.05 versus vehicle alone (DMSO) by unpaired t test. FIG. 4B) TAOK2 inhibitors induce accumulation of p62. U2OS GFP-LC3 cells were treated with the indicated compounds at 50 μM concentration, or DMSO alone, for 24 hours. Lysates were collected and analyzed by western blot using the indicated antibodies. XPB was used as a loading control.
U2OS GFP-LC3 cells were seeded in 6-well plates at 150,000 cells per well in Dulbecco's Modified Eagle Medium supplemented with 10% fetal bovine serum. Twenty-four hours after seeding, the indicated compounds were added to a final concentration of 50 µM, or an equivalent volume of vehicle alone (DMSO) was added. Twenty-four hours after compound addition, cells were rinsed twice with PBS and then lysed in 2× sample buffer. Lysates were boiled for 5 minutes, sonicated to shear DNA, separated by SDS-PAGE, and transferred to PVDF membranes (Biorad). The membranes were blocked in 5% milk in TBS-T (Tris-Buffered-Saline, Tween 20) for one hour at room temperature and then incubated with primary antibody in blocking solution overnight at 4° C. Membranes were then washed, incubated with secondary antibody in blocking solution, washed again, and analyzed by enhanced chemiluminescence followed by exposure to film.
(§2) Degradation of the autophagy scaffold and LC3 binding protein p62 is a second marker of autophagic flux. p62 degradation was assayed by Western blotting (FIG. 4B).

[3] = system: U2OS GFP-LC3 cells; experiment: GFP-LC3 accumulation by flow cytometry (autophagic flux); format: cell-based, human; settings: 50 μM, 24 hours
Procedure: as §1
U2OS GFP-LC3 cells were seeded in 6-well plates at 150,000 cells per well in Dulbecco's Modified Eagle Medium supplemented with 10% fetal bovine serum. Twenty-four hours after seeding, the indicated compounds were added to a final concentration of 50 μM, or an equivalent volume of vehicle alone (DMSO) was added. Twenty-four hours after compound addition, cells were rinsed with PBS (Phosphate-Buffered Saline) and analyzed by flow cytometry using a FACS Calibur (BD Biosciences) to measure media GFP fluorescence per cell.
It had previously been determined that TAOK2 is required for autophagic flux in cancer cells. siRNA targeting TAOK2 elicited an expression response similar to siRNA targeting known autophagy genes, such as ULK1, a protein kinase involved in mTOR and AMPK signaling, in the human colon cancer cell line HCT116. TAOK2 depletion also impaired autophagic flux in human osteosarcoma cell line U2OS engineered to stably express the autophagy marker 1A/1B-light chain 3 fused to GFP (GFP-LC3), a microtubule associated protein.
as §2

[4] = system: 45 off-target kinases; experiment: Specificity screen against 45 kinases (Eurofins Cerep); format: biochemical; settings: inhibition higher than 50% considered significant
Procedure: Of the 13 inhibitors, 3 were tested for cross-reactivity against 45 off-target kinases.
The difference between the TAOK2 ΔTm and that of p38 and ASK1 was determined. […] The majority of the other compounds were also preferentially inhibitory toward TAOK2. Of the 13 compounds, SW034538, SW172006 and SW083688 were cross-verified for selectivity by performing a specificity screen against 45 kinases commercially at Eurofins Cerep, Inc. (FIG. 3).

| ΔTm at 1 µM [1] [°C] | SMILES | abundance of p62 [2] | impairment of autophagic flux (accumulation of GFP-LC3) [3] | specificity toward TAOK2 in screen against 45 kinases [4] |
| --- | --- | --- | --- | --- |
| 2 | CCOCCCn1c(=S)[nH]c2cc(C(=O)NCC3COc4ccccc4O3)ccc2c1=O (stereo not drawn) [SW083688] | increased the abundance of p62 | effective | highly specific toward TAOK2 |
| 3 | CCC(=O)Nc1nc(C)c(-c2csc(Nc3cc(OC)ccc3OC)n2)s1 [SW034538] | did not appear to increase the appearance of p62 | showing inhibition; also recorded: effective | cross-reactivity with respect to six of the 45 kinases |
| 1.3 | CS(=O)(=O)c1ccc2nc(NC(=O)CCCOc3ccc(Cl)cc3)sc2c1 [SW172006] | increased the abundance of p62 | effective | highly specific toward TAOK2 |
